# In patent publication US11040082B2, “Compositions and methods for treating colorectal cancer” (Georgia State University Research Foundation, Inc., priority 2014, dated 2021):
# T1: PepT1 (Homo sapiens, UniProt P46059)
# T1 construct: endogenous in cells; host or cells: Caco-2/BBE cells
# T1 sequence (P46059 1-708): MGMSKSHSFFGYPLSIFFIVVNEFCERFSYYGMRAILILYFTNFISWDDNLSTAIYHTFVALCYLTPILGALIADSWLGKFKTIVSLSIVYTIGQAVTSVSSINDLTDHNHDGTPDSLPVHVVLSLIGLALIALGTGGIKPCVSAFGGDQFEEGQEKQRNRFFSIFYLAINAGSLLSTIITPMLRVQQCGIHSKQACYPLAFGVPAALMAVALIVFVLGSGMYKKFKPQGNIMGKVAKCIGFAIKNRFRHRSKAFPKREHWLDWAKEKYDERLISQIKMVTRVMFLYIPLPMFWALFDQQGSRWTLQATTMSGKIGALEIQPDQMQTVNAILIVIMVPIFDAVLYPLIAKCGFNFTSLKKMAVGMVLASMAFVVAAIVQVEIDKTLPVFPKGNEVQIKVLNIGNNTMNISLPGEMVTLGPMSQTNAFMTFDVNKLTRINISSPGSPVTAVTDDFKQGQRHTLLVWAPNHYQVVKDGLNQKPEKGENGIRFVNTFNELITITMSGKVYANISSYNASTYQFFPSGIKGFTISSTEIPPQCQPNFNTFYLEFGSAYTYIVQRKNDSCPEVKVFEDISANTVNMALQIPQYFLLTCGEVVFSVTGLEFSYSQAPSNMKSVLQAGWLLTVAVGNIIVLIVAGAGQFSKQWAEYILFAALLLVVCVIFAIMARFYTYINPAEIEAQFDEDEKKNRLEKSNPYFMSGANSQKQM
# Columns and labels:
# tumor growth = settings: several studies; cited from earlier work
# colon adenocarcinoma = settings: cited from earlier work
# [1] = tested on: myeloid leukemia C1498 cells; settings: in vivo; cited from earlier work
# [2] = tested on: AOM/DSS-induced colon tumorigenesis; experiment: AOM/DSS-induced colitis-associated cancer (CAC) model, WT mice, with or without KPV; type: in vivo, mouse
# Procedure: (§1) Colonic tumor model: Colon cancer was induced as previously described with some modifications (Greten et al., Cell 118:285-96, 2004). Mice were intraperitoneally injected with AOM (Sigma-Aldrich, St. Louis, Mo.) diluted in PBS (10 mg/kg) and maintained on a regular diet and water for 5 days. The mice were then subjected to two cycles of DSS treatment (MP Biomedicals, Solon, Ohio, USA), with each cycle consisting of 2.5% DSS for 7 days followed by a 14-day recovery period with regular water. Mice were then sacrificed and their colons isolated for further experimentation. Colonic tumors were counted and measured using a dissecting microscope. The total sum of the area of each colon covered by tumor tissue was expressed as the tumor burden index.
# (§2) In experiments designed to test the efficacy of KPV (Biopeptide Co. Inc., San Diego, Calif.), the above protocol was slightly modified. Five days after AOM injections (10 mg/kg to WT mice or 15 mg/kg to PepT1-KO mice), the WT and PepT1-KO mice were given 3% DSS with or without KPV for seven days. Following the 7-day treatment, the mice were given normal drinking water for 14 days, then 2.5% DSS (WT) or 3% DSS (PepT1-KO mice) with or without KPV for seven days. Following the 7-day treatment, the mice were given normal drinking water for 14 days. The KPV-treated group received 100 μM KPV in their drinking water along with the DSS during both DSS cycles.
# H&E Staining of Colonic Tissue: Mouse colons were fixed in 10%-buffered formalin for 24 hours at room temperature and then embedded in paraffin. Tissues were sectioned at 5-μm thickness and stained with hematoxylin & eosin (H&E) using standard protocols. Images were acquired using an Olympus microscope equipped with a DP-23 digital camera.
# Immunohistochemistry: Mouse colonic tissues were fixed in formalin and paraffin-embedded. For Ki67, β-catenin and PepT1 staining, sections were deparaffinized. Slides were incubated in sodium citrate buffer (pH 6.0) and cooked in a pressure cooker for 10 minutes for antigen retrieval. Sections were then blocked with 5% goat serum in TBS followed by incubation for one hour with anti-Ki67 (1:100, Vector Laboratories, Burlingame, Calif.), anti-β-catenin (1:1000, Cell Signaling, Danvers, Mass.) or anti-mPepT1 at 37° C. After washing with TBS, sections were treated with appropriate biotinylated secondary antibodies for 30 minutes at 37° C., and color development was performed using the Vectastain ABC kit (Vector Laboratories). Sections were then counterstained with hematoxylin, dehydrated, and then coverslipped. Images were acquired using an Olympus microscope equipped with DP-23 Digital camera. Ki67-positive cells were counted per crypt.
# Therefore, we hypothesized that KPV may help prevent colon tumorigenesis in the AOM/DSS-induced CAC model. To test this hypothesis, WT mice were treated with AOM/DSS or AOM/DSS+KPV (during the DSS cycles). […] In order to investigate any putative protective effect of KPV administration in pepT1-KO mice, the colitis-associated cancer protocol was slightly modified based on the relatively low penetrance of the disease in pepT1-deficient animals (FIG. 3). AOM concentration was increased to 15 mg/kg and DSS was increased to 3% in order to favor tumor development. […] Upregulation of colonic PepT1 may lead to increased interactions between bacterial peptides and intracellular innate immune receptors, including NOD receptors, thus triggering downstream activation of proinflammatory signaling pathways (Dalmasso et. al., Gastroenterology 141:1334-45, 2011; Laroui et al., J. Biol. Chem. 286:31003-13, 2011). Furthermore, previous studies have shown that bacteria are required for the initiation of colonic inflammation and subsequent dysplasia and tumorigenesis (Itzkowitz and Yio, Am. J. Physiol. Gastrointest. Liver Physiol. 287:G7-17, 2004). […]
# [3] = tested on: AOM/DSS-induced colon tumorigenesis in PepT1-KO mice; experiment: AOM/DSS-induced colitis-associated cancer model, PepT1-KO mice, with or without KPV; type: in vivo, mouse; settings: AOM 15 mg/kg, 3% DSS, + KPV vs AOM/DSS only
# Procedure: as §1, §2
# Therefore, we hypothesized that KPV may help prevent colon tumorigenesis in the AOM/DSS-induced CAC model. To test this hypothesis, WT mice were treated with AOM/DSS or AOM/DSS+KPV (during the DSS cycles). […] In order to investigate any putative protective effect of KPV administration in pepT1-KO mice, the colitis-associated cancer protocol was slightly modified based on the relatively low penetrance of the disease in pepT1-deficient animals (FIG. 3). AOM concentration was increased to 15 mg/kg and DSS was increased to 3% in order to favor tumor development. […] Upregulation of colonic PepT1 may lead to increased interactions between bacterial peptides and intracellular innate immune receptors, including NOD receptors, thus triggering downstream activation of proinflammatory signaling pathways (Dalmasso et. al., Gastroenterology 141:1334-45, 2011; Laroui et al., J. Biol. Chem. 286:31003-13, 2011). Furthermore, previous studies have shown that bacteria are required for the initiation of colonic inflammation and subsequent dysplasia and tumorigenesis (Itzkowitz and Yio, Am. J. Physiol. Gastrointest. Liver Physiol. 287:G7-17, 2004). Future studies are warranted to assess the role of PepT1-bacterial interactions in these processes, and whether such interactions contribute to the progression of CAC.
# PepT1 = molecular target: T1, PepT1; settings: in vitro, Caco-2/BBE cells; cited from earlier work
# [4] = tested on: Caco2-BBE and Jurkat cells; settings: stimulation with pro-inflammatory cytokines, co-treated with KPV; cited from earlier work
# DSS-induced colitis = settings: previous studies; cited from earlier work
# [5] = tested on: PepT1 expression and colitis in IL-10-/- mice; settings: compared to vehicle-treated; cited from earlier work
# [6] = tested on: tumorigenesis in IL-10-deficient mice; settings: even after colitis had developed; cited from earlier work
# [7] = AOM/DSS + 100 μM KPV in drinking water during both DSS cycles vs AOM/DSS only
# [8] = AOM/DSS + 100 μM KPV vs AOM/DSS only
molecule,measurement,setting,value
CC(C)C[C@H](NC(=O)[C@@H](O)[C@H](N)Cc1ccccc1)C(=O)O [bestatin],cell proliferation,tumor growth,decreases cell proliferation
same,tumor growth,tumor growth,ameliorates tumor growth
same,growth of colon adenocarcinoma,colon adenocarcinoma,inhibits the growth of colon adenocarcinoma
same,growth of myeloid leukemia C1498 cells,[1],decreases the growth
Lys-Pro-Val [KPV],colon tumorigenesis: overall colonic tumor burden,[2]; [7],drastic decreases
same,colon tumorigenesis: tumor numbers,[2]; [7],drastic decreases
same,colon tumorigenesis: tumor sizes,[2]; [7],drastic decreases
same,aberrant crypt foci (H&E-stained colonic sections),[2]; [8],fewer aberrant crypt foci
same,body weight loss during DSS treatment,[2]; [8],lost similar amounts of weight
same,cellular infiltration (H&E-stained colonic sections),[2]; [8],decreased cellular infiltration
same,epithelial cell proliferation (Ki67+ cells/crypt),[2]; [8],less epithelial cell proliferation
same,inflammation (H&E-stained colonic sections),[2]; [8],decreased inflammation
same,protection from tumorigenesis,[3],not protected from tumorigenesis
same,tumor burden,[3],remained unchanged
same,tumor numbers,[3],remained unchanged
same,tumor sizes,[3],remained unchanged
same,transport via PepT1,PepT1,transported via PepT1
same,NF-κB activation,[4],attenuated NF-κB activation
same,pro-inflammatory cytokine production,[4],decreased pro-inflammatory cytokine production
same,inflammation and DSS-induced colitis,DSS-induced colitis,decreases inflammation and attenuates DSS-induced colitis
Lactobacillus plantarum,PepT1 expression and activity,[5],reduced PepT1 expression and activity
same,colitis,[5],attenuated colitis
"IL-10: exogenous anti-inflammatory cytokine IL-10 administered to IL-10-deficient mice (protein, UniProt P18893 19-178, looked up) Interleukin-10: SRGQYSREDNNCTHFPVGQSHMLLELRTAFSQVKTFFQTKDQLDNILLTDSLMQDFKGYLGCQALSEMIQFYLVEVMPQAEKHGPEIKEHLNSLGEKLKTLRMRLRRCHRFLPCENKSKAVEQVKSDFNKLQDQGVYKAMNEFDIFINCIEAYMMIKMKS",tumorigenesis,[6],tumorigenesis was decreased
